Results: patent US5110935A, “New compounds which are active against the tissue forms of malaria and method of preparation” (Ire-Celltarg, S.A., priority 1988, dated 1992)

Tests used:
[1] = Hydrolysis in the presence of lysosomal enzymes; format: in vitro ADME, rat; conditions: rat
Description: (§1) The compounds, at a final concentration of 15 μg/ml, are incubated in 50 mM acetate buffer, pH 4.5, at 37° C. in the presence of 5 mM cysteine and a lysosomal enzyme fraction (0.15 mg protein/ml) purified from rat liver.
(§2) The purified lysosomal fraction is prepared according to the method described by Trouet (1974, Meth. Enzymol., 31, 323-334).
(§3) At intervals of time, corresponding samples are taken from the incubation. The enzyme reaction is stopped by adding 10 μl of 10M HCl per ml of sample. A volume of 20 μl is withdrawn and analyzed directly by HPLC under the standard conditions.
(§4) ^a : The compounds are incubated at pH 4.5 in the presence of
(§5) lysosomal enzymes (0.15 mg protein/ml) and 5 mM cysteine, and then
(§6) analyzed by spectrophotometry after HPLC. The initial purity of the
(§7) ^b : The results represent the relative concentration of primaquine
(§8) (PQ) and derivatives (PQX) in terms of the incubation time, expressed as
(§9) percentage of the initial concentration (time 0) after extraction.

lysosomal enzymes = test: Hydrolysis in the presence of lysosomal enzymes; format: in vitro ADME, rat
Description: as §1, §2, §3, §4, §5, §6, §7, §8, §9

human red cells = test: Methemoglobin production in human red cells; format: cell-based; conditions: for Methemoglobin (% of total hemoglobin concentration): 1 hour, 37° C.
Description: (§15) Two important toxic effects of PQ were assessed on the two derivatives: the hemolytic effect and the conversion of hemoglobin to methemoglobin.
(§16) A+ blood is washed twice in 0.15M phosphatebuffered saline at pH 7.4 containing 20 mM glucose (GPBS), and then resuspended at a concentration of 50% in the same buffer. To this suspension, an equal volume of compound dissolved in GPBS at different concentrations (test), or of GPBS (control) is added. The final hematocrit of the suspension is 25%. After 60 minutes' incubation at 37° C., the concentration of hemoglobin and methemoglobin is determined on the total suspension, and the concentration of hemoglobin present in the supernatant after centrifugation (extracellular hemoglobin) is determined, by the cyanmethemoglobin and benzidine methods (Fairbanks V.F., 1976, in "Fundamentals of Clinical Chemistry, M.W. Tietz Editors, Saunders").

[2] = Hemolytic effect on human red cells; format: cell-based; conditions: human, red cells, pH 7.4, 1 hour, 37° C., read-out: Hemolysis (% of total hemoglobin concentration)
Description: as §15, §16

human erythrocytes = conditions: not told
Description: Fresh human blood (A+) on CPDA is washed twice in RPMI medium containing 20 mM glucose at pH 7.4, and then resuspended in the same medium at 37° C. to obtain a 20% suspension of red cells (2×10^9 erythrocytes/ml). To 1 ml of this suspension, 1 ml of a solution of PQ or derivatives at a concentration of 0.250 mM in the same medium at 37° C. is added.
After different incubation times at 37° C., 0.5 ml of sample is withdrawn and then transferred to an Eppendorf tube containing 0.4 ml of silicone oil (Merck, density 1.06 g/ml).
After centrifugation for 30 seconds at 12,000 g, the supernatant and the silicone oil are removed, while the cells in the pellet are lyzed by adding 0.5 ml of water. The quinoline compound present in combination with the cell lysate is then extracted by precipitation of the cell proteins with acetonitrile (0.5 ml) and thereafter analyzed by HPLC under the standard conditions.
The intracellular concentration of quinoline derivative is obtained by subtracting the concentration of compound present in the extracellular medium from the total concentration in the cell lysate. The contaminating extracellular volume is measured using tritiated inulin.

[3] = Stability in the presence of fetal calf serum; format: in vitro ADME; conditions: 37° C.
Description: The influence of serum on the stability of primaquine (PQ) and its derivatives is determined by incubating these compounds at 37° C. at a concentration of 100 μg/ml in 95% fetal calf serum (FCS, Flow Laboratories) or human serum and phosphate-buffered saline (0.15 M PBSA, pH 7.2) as a control. All the solutions are sterilized by filtration on a Millipore filter (Millex GV) of porosity 0.20 μm.
At interval of time, 1-ml samples are withdrawn and the serum proteins are then extracted from them by precipitation with acetonitrile. For this purpose, an identical volume of acetonitrile is added to each sample. After vigorous mixing in a Vortex mixer, the samples are left for 1 hour at 4° C. and protected from light and then centrifuged for 5 minutes at 12,000 g. The supernatants are collected and then analyzed by HPLC (20- to 50-μl aliquot) under the standard conditions.
The results for the stability of primaquine and its two derivatives in the presence of fetal calf serum are recorded in Table 1; the results are expressed as a % of the initial concentration (time 0) after extraction.
^a : The compounds are incubated at 37° C. in the presence of
fetal calf serum (95% final) and then analyzed by spectrophotometry after
as §7
(PQ) and of derivatives (PQX) in terms of the incubation time, expressed
as a percentage of the initial concentration (time 0) after extraction

female Swiss OF1 mice = test: Acute toxicity in mice after a single i.v. administration; format: in vivo
Description: (§10) The acute toxicity in terms of a single administered dose is determined on female Swiss OF1 mice weighing 22 to 25 g. A series of dilutions of each compound is injected intravenously into groups of 10 mice (0.1 ml per 10 g of weight).
(§11) The lethal dose for 50% of mice (LD50) is determined by linear regression of the logits of the percentage of surviving animals as a function of the logarithm of the dose injected (in mg PQ diphosphate equivalent/kg) (Logit Weighted Transformation, Berkson J., 1953; J. Am. Stat. Assoc. 48, 565-599).
(§12) ^a : The products are administered i.v. to groups of 10 female Swiss
(§13) ^b : Maximum tolerated dose (MTD), defined as the highest dose
(§14) The acute toxicity in terms of a single administered dose is determined under the same conditions and according the protocol of Example 3.

[4] = as above; format: in vivo; conditions: mouse, in vivo, iv, single i.v., mg PQ diphosphate equivalent/kg
Description: as §10, §11, §12, §13, §14

Plasmodium berghei = test: Therapeutic index in mice; format: in vivo, P. berghei; conditions: mice, i.v.
From the text: The therapeutic index is defined as the ratio of the toxicity, expressed as LD50, to the therapeutic activity, expressed as CPD50, in mice.
^b : The therapeutic index (TI) is the ratio of LD50 to […]

Compound: COc1cc(NC(C)CCCNC(=O)[C@@H]2CCC(=O)N2)c2ncccc2c1 (stereo partly drawn) [pGLU-PQ, N-(α-L-pyroglutamyl)primaquine]
- metabolised at 1 h ([1]; liver lysosomal enzyme fraction, pH 4.5, 1 h, read-out: Relative concentration of primaquine (PQ) from derivative): 0%
- metabolised at 2 h ([1]; liver lysosomal enzyme fraction, pH 4.5, 2 h, read-out: Relative concentration of primaquine (PQ) from derivative): 0%
- metabolised at 3 h ([1]; liver lysosomal enzyme fraction, pH 4.5, 3 h, read-out: Relative concentration of primaquine (PQ) from derivative): 0%
- metabolised at 6 h ([1]; liver lysosomal enzyme fraction, pH 4.5, 6 h, read-out: Relative concentration of primaquine (PQ) from derivative): 0%
- metabolised at 24 h ([1]; liver lysosomal enzyme fraction, pH 4.5, 24 h, read-out: Relative concentration of primaquine (PQ) from derivative): 0%
- metabolised at 48 h ([1]; liver lysosomal enzyme fraction, pH 4.5, 48 h, read-out: Relative concentration of primaquine (PQ) from derivative): 0%
- remaining at 1 h ([1]; liver lysosomal enzymes, pH 4.5, 37° C., 1 h, read-out: Relative concentration of compound (% of initial concentration)): 94%
- remaining at 2 h ([1]; liver lysosomal enzymes, pH 4.5, 37° C., 2 h, read-out: Relative concentration of compound (% of initial concentration)): 97%
- remaining at 3 h ([1]; liver lysosomal enzymes, pH 4.5, 37° C., 3 h, read-out: Relative concentration of compound (% of initial concentration)): 97%
- remaining at 6 h ([1]; liver lysosomal enzymes, pH 4.5, 37° C., 6 h, read-out: Relative concentration of compound (% of initial concentration)): 96%
- remaining at 24 h ([1]; liver lysosomal enzymes, pH 4.5, 37° C., 24 h, read-out: Relative concentration of compound (% of initial concentration)): 76%
- remaining at 48 h ([1]; liver lysosomal enzymes, pH 4.5, 37° C., 48 h, read-out: Relative concentration of compound (% of initial concentration)): 47%
- Onset of gradual decrease in relative concentration (lysosomal enzymes): > 6 h
- Relative concentration of primaquine (PQ) from derivative (lysosomal enzymes; pH 4.5, 0 h): 1%
- Relative concentration of compound (% of initial concentration) (lysosomal enzymes; pH 4.5, 37° C., 0 h): 99%
- Methemoglobin (% of total hemoglobin concentration) (human red cells; 1 mM): 0.9 (0.1) %
- Methemoglobin (% of total hemoglobin concentration) (human red cells; 2 mM): 2.2 (0.9) %
- Methemoglobin (% of total hemoglobin concentration) (human red cells; 5 mM): 3.9 (0.0) %
- Methemoglobin (% of total hemoglobin concentration) (human red cells; 10 mM): 6.0 (0.2) %
- Oxidation of hemoglobin, times less than PQ (human red cells; same concentration as PQ (10 mM)): 1.5 times less
- hemolysis at 1 h, 1000 µM ([2]; 1 mM): 0.32%
- hemolysis at 1 h, 2000 µM ([2]; 2 mM): 0.24%
- hemolysis at 1 h, 5000 µM ([2]; 5 mM): 0.44%
- hemolysis at 1 h, 10000 µM ([2]; 10 mM): 2.34%
- Time to maximum level in erythrocytes (human erythrocytes): 60 min
- remaining at 1 h ([3]; bovine, fetal calf serum 95%, 1 h, read-out: Relative concentration of compound (% of initial concentration)): 100%
- metabolised at 1 h ([3]; bovine, fetal calf serum 95%, 1 h, read-out: Relative concentration of primaquine (PQ) from derivative): 0%
- remaining at 2 h ([3]; bovine, fetal calf serum 95%, 2 h, read-out: Relative concentration of compound (% of initial concentration)): 101%
- metabolised at 2 h ([3]; bovine, fetal calf serum 95%, 2 h, read-out: Relative concentration of primaquine (PQ) from derivative): 0%
- remaining at 3 h ([3]; bovine, fetal calf serum 95%, 3 h, read-out: Relative concentration of compound (% of initial concentration)): 105%
- metabolised at 3 h ([3]; bovine, fetal calf serum 95%, 3 h, read-out: Relative concentration of primaquine (PQ) from derivative): 0%
- remaining at 6 h ([3]; bovine, fetal calf serum 95%, 6 h, read-out: Relative concentration of compound (% of initial concentration)): 103%
- metabolised at 6 h ([3]; bovine, fetal calf serum 95%, 6 h, read-out: Relative concentration of primaquine (PQ) from derivative): 0%
- remaining at 24 h ([3]; bovine, fetal calf serum 95%, 24 h, read-out: Relative concentration of compound (% of initial concentration)): 107%
- metabolised at 24 h ([3]; bovine, fetal calf serum 95%, 24 h, read-out: Relative concentration of primaquine (PQ) from derivative): 0%
- remaining at 48 h ([3]; bovine, fetal calf serum 95%, 48 h, read-out: Relative concentration of compound (% of initial concentration)): 87%
- metabolised at 48 h ([3]; bovine, fetal calf serum 95%, 48 h, read-out: Relative concentration of primaquine (PQ) from derivative): 0%
- Relative concentration of compound (% of initial concentration) ([3]; fetal calf serum 95%, 0 h): 100%
- Relative concentration of primaquine (PQ) from derivative ([3]; fetal calf serum 95%, 0 h): 0%
- Stability in the presence of serum ([3]; serum): undergoes no modification
- Fold less toxic than PQ (female Swiss OF1 mice; mice, i.v.): at least 5 -fold
- LD50 (female Swiss OF1 mice; single i.v., mg PQ diphosphate equivalent/kg): 159 (6) mg/kg
- Maximum tolerated dose (MTD) (female Swiss OF1 mice; single i.v., mg PQ diphosphate equivalent/kg, weight loss not exceeding 5% during 5 days): 126 (13) mg/kg
- LD50 [4]: 159 mg/kg
- MTD ([4]; weight loss not exceeding 5% during 5 days, read-out: Maximum tolerated dose (MTD)): 126 mg/kg
- Therapeutic index, fold higher than that of PQ (Plasmodium berghei): 9 -fold
